The record followed here is patent publication US10532068B2, “Dual molecular delivery of oligonucleotides and peptide containing conjugates” (Merck Sharp & Dohme Corp., priority 2013, dated 2020).

Data set [1] concerns the target T1, RISC (Mus musculus, UniProt Q8CJG0).
T1 construct: from tissue; host or cells: liver of female CD-1 mice
Put plainly: Quantitation of siRNA bound to RISC in mouse liver (Ago2 immunoprecipitation, stem-loop qPCR). The format is in vivo, CD-1 mice. The settings on record: FIG. 5. The method, then: Female CD-1 mice (Charles River) were injected in accordance with either a sequential dosing paradigm or a co-dosing paradigm. In the sequential dosing paradigm, the targeted siRNA (SCE) is dosed at t=0 and the targeted peptide is separately dosed up to 2 hr before the SCE (−2 hr) or up to 24 hr after the SCE (+24 hr). In the co-dosing paradigm, the SCE and peptides are co-formulated and dosed together in the same formulation as a single injection at t=0. The mice were dosed either by intravenous (i.v.) or subcutaneous (s.c.) injection of SCE and peptide. For the i.v. doses, the compounds were injected into the tail vein of the mice. For the s.c. doses, the compounds were injected in the subcutaneous space on the back of the mouse between the shoulder blades. At the indicated harvest times (measured from t=0 when the siRNA was dosed, regardless of when the peptide was dosed), the animals were sacrificed and 3 mm liver punches were collected, preserved in RNAlater (Ambion), and stored at 4° C. Separate 5 mm liver punches were collected, placed in 96-well plates, frozen on dry ice, and stored at −80° C. until use. […]
A general note: Real-time PCR tracks product formation cycle by cycle.

The subject of data set [2] is CTNNB1. As to the kind of experiment: In vivo evaluation in mice: liver mRNA knockdown measurement (TaqMan qPCR). The arrangement: species or system CD-1 mice. The settings on record: FIG. 4; sequential dosing, peptide 15 min after siRNA. In a few lines: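 Female CD-1 mice got siRNA (SCE) and targeting peptide i.v. (tail vein) or s.c., co-formulated at t=0 or sequentially (peptide −2 hr to +24 hr vs siRNA). Liver punches taken at set times after siRNA dosing; TaqMan qPCR with PPIB housekeeping, ΔΔCt relative to PBS control.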

T1 sequence (Q8CJG0 whole entry): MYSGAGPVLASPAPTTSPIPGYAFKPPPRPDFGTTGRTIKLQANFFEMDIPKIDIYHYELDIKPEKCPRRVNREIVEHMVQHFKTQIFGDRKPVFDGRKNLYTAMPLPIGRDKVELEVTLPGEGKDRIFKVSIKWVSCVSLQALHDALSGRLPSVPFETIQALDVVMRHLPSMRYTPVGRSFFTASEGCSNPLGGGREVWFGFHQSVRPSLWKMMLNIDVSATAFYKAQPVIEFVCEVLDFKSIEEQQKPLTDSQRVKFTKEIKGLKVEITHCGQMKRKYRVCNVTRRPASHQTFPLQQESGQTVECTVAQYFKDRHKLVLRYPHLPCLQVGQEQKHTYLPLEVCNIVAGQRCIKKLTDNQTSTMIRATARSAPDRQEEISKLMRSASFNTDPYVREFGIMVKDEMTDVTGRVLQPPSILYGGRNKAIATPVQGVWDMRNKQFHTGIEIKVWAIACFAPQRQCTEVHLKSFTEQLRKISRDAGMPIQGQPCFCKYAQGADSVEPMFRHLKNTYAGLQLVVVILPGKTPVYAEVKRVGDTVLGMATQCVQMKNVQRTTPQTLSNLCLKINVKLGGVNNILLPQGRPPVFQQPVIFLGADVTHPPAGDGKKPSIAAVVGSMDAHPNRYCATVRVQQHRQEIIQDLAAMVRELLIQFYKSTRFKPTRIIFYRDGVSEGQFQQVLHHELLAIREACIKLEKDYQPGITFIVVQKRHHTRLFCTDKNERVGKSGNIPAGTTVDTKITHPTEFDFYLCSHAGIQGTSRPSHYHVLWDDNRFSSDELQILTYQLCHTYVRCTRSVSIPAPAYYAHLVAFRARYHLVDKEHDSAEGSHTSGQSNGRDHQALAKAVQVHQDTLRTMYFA

Take “siRNA-III: CTNNB1 ds siRNA, passenger SEQ ID NO 1803, guide SEQ ID NO 1806 (vinylPmoeT) (sense CUGUUGGAUUGAUUCGAAAUU; guide TUUCGAAUCAAUCCAACAGUU; vinylphosphonate MOE T; (1)..(1) aminohexyl phosphate inverted abasic cap; (1)..(2) 2′-O-methyl; (3)..(3) 2′-deoxy-2′-fluoro; (4)..(5) 2′-O-methyl; (6)..(8) 2′-deoxy-2′-fluoro; (9)..(10) 2′-O-methyl; (11)..(12) 2′-deoxy-2′-fluoro; (13)..(15) 2′-O-methyl; (16)..(19) 2′-deoxy-2′-fluoro; (20)..(21) 2′-O-methyl; (20)..(21) phosphorothioate internucleotide linkage; (21)..(21) inverted abasic cap; (1)..(1) terminal vinyl phosphate; (1)..(1) 2′-methoxyethoxy; (2)..(21) ribonucleotide unmodified or modified as described for this sequence; (2)..(2) 2′-deoxy-2′-fluoro; (3)..(3) 2′-O-methyl; (4)..(4) …)”: the “time course of RISC loading” value in data set [1] is “faster RISC loading”. In data set [2], the “time course of mRNA KD in DMD format compared to 5-fold higher dose of siRNA-III alone” value was “faster and greater KD”.
